Data taken from paper PMC12114633, “α-Glucosidase Inhibition Mechanism and Anti-Hyperglycemic Effects of Flavonoids from Astragali Radix and Their Mixture Effects” (Pharmaceuticals, 2025).
Read-outs that look alike come from different tables or passages of the source.

Columns and labels:
blood glucose = details: 50 mg/kg, cited from earlier work
[1] = target: T1, Saccharomyces cerevisiae α-glucosidase (Saccharomyces cerevisiae, UniProt P53341); assay: biochemical; details: IC50, α-glucosidase 0.2 U/mL, 5 mM pNPG, PBS pH 6.8, 37 °C
T1 construct: purchased Shanghai Yuanye Biotechnology Co., Shanghai, China Lot No. M23HS178879 (catalogue number not given)
Protocol: (§1) The α-glucosidase inhibitory effects of flavonoids were evaluated as in a previous report with slight modifications (including changes in the concentrations of the enzyme, substrate, and Na2CO3). Briefly, 50 μL of phosphate-buffered saline (PBS, 0.1 M, pH 6.8), the test compound, and α-glucosidase (0.2 U/mL) were preincubated in a 96-well plate at 37 °C for 10 min. The reaction was then initiated by adding 50 μL of 5 mM pNPG as the substrate. Subsequently, the 96-well plate was incubated for an additional 30 min at 37 °C, then 50 μL of 0.2 M Na2CO3 was added to terminate the reaction. Absorbance was measured at under 405 nm.

normal C57BL/6J mice = assay: Oral sucrose test, postprandial blood glucose; type: in vivo; details: for Blood glucose levels: 30 min after sucrose 4 g/kg, n = 8, in mmol/L (unit assumed); for Rate of blood glucose reduction: vs model group, 30 min after sucrose
Description: Male C57BL/6J mice of SPF grade, aged 6–8 weeks and weighing 18–22 g, were obtained from the Experimental Animal Science Department of Peking University. The mice were housed in a controlled environment with a 12:12 light/dark cycle and a constant temperature. They were provided with standard pellet feed and given free access to drinking water. To ensure acclimatization, the mice were allowed to adjust to the diet and housing conditions for one week prior to the experiment. All animal experiments were performed in compliance with the relevant laws and institutional guidelines for the care and use of laboratory animals in China. The experiments were approved by the Laboratory Animal Management and Ethics Committee of Peking University (LA2021443). Additionally, the certification number for the laboratory animal personnel is 1120111300011.
The 16 flavonoids were subsequently evaluated for their potential antihyperglycemic effects by using the oral sucrose test, which is commonly used to evaluate intestinal α-glucosidase inhibition in vivo [62]. Normal C57BL/6J mice were randomly divided into model groups and the 16 flavonoid compound groups (n = 8 per group), respectively. The flavonoids at different concentrations were suspended in 0.5% sodium carboxymethyl cellulose (CMC-Na). […] Fifteen minutes after drug administration, the mice were given a sucrose solution (4 g/kg). Blood samples were collected from the tail vein at 30 min after sucrose loading, and blood glucose levels were measured using an Accu-Chek Performa glucometer (Roche Diagnostics, SN: 79508621393, Shanghai, China). The rate of blood glucose reduction was calculated using the following Formula (4):(4) The rate of blood glucose reduction%=the model blood glucose-the sample blood glucose/the model blood glucose×100%

α-glucosidase [2] = target: T2, α-glucosidase (Saccharomyces cerevisiae, UniProt P53341); assay: Inhibitory kinetic analysis (Lineweaver–Burk plot); type: biochemical; details: Lineweaver–Burk plots, pNPG 0.31–20 mM
T2 construct: purchased Shanghai Yuanye Biotechnology Co., Shanghai, China Lot No. M23HS178879 (catalogue number not given)
Protocol: The type of inhibition was determined by using the kinetics curve and the Lineweaver–Burk plot. […] These compounds were incubated with α-glucosidase at 37 °C for 30 min. After incubation, various concentrations of pNPG (0.31–20 mM) were added, and absorbance was measured at 405 nm. The Lineweaver–Burk plot was obtained by plotting 1/[S] on the x-axis and 1/v on the y-axis, where [S] represents substrate concentration and v represents the reaction velocity.

α-glucosidase [3] = target: T2, α-glucosidase; assay: CD spectroscopy, secondary structure of α-glucosidase (BeStSel); details: for β-turn: free enzyme 11.7; for β-sheet: free enzyme 28.8; for random coil: free enzyme 45.2; for α-helix: free enzyme 14.4
Protocol: CD spectra in the far-UV region (190–250 nm) were scanned by using a CD spectrometer (JASCO-1.5 Tokyo, Japan). […] The slit width was set to 1 nm, and the baseline was calibrated with PBS (phosphate buffered saline). CD spectra were averaged over three scans under a constant nitrogen flow, with the buffer signal subtracted. The results were analyzed using the BeStSel database (https://bestsel.elte.hu/index.php, accessed on 16 May 2025).

α-glucosidase [4] = target: T2, α-glucosidase; assay: biochemical; type: binding
Protocol: SPR analysis was performed using the Biacore 8K system (GE Healthcare, Uppsala, Sweden). α-Glucosidase (0.05 mg/mL) was fixed on the CM5 sensor chip by an amine coupling kit. Subsequently, various concentrations of the 16 flavonoids dissolved in 5% DMSO were continuously injected onto the surface of α-glucosidase coated surface. After each sample injection, the sensor chip surface was washed and regenerated with running buffer (PBS) at a flow rate of 30 µL/min. According to the 1:1 Langmuir model, the equilibrium dissociation constant (KD) was calculated by the Biacore evaluation software. For sensorgrams without significant kinetic features, the KD values were calculated using the steady-state analysis.

α-glucosidase [5] = target: T2, α-glucosidase; assay: Mixture effects of flavonoid combinations on α-glucosidase; type: biochemical; details: calculated from the dose–response curve
Protocol: as §1
The inhibitory activity of the composition was evaluated using the same method described in Section 3.2. […] The combination index (CI, Formula (3)) was subsequently used to assess the interactions between the compounds [60].(2) Y=Bottom+Top−Bottom/1+10^^((LogIC50−X)×HillSlope)
In Formula (3), (D)j represents the concentration of component j in the mixture needed to achieve an effect of x, while (Dx)j denotes the concentration of component j required to produce the same effect when acting alone. Here, x refers to the inhibition rate produced by the composition, and n indicates the number of individual compounds in the composition.

α-glucosidase [6] = details: literature values, reference given; read-out: IC50 in References; cited from earlier work
[7] = molar ratio 10:1, α-glucosidase 4 μM
[8] = molar ratio 40:1, α-glucosidase 4 μM

T2 sequence (P53341 whole entry): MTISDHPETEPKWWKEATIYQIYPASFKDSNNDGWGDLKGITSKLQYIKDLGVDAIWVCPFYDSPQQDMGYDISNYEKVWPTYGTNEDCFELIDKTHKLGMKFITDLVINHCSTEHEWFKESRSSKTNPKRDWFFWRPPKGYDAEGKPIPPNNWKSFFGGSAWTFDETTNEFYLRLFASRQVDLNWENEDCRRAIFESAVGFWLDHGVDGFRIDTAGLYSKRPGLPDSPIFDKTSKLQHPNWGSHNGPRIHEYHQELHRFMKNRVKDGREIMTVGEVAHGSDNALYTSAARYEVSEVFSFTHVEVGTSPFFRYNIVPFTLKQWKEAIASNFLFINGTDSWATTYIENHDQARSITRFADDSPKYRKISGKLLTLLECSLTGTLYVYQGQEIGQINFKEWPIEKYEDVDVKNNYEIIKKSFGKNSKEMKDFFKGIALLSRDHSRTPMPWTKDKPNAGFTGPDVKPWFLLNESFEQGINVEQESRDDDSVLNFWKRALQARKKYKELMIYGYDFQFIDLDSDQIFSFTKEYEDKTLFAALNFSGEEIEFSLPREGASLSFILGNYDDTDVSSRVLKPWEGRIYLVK
T1 sequence (P53341 whole entry): as above

In the case of `O=c1c(O)c(-c2ccc(O)c(O)c2)oc2cc(O[C@@H]3O[C@H](CO)[C@@H](O)[C@H](O)[C@H]3O)c(O)c(O)c12` [quercetagetin-7-O-glucoside], the “reduction of blood glucose” value (blood glucose; ref 51 (Tian et al.)) is given as 16.7%.
With `COc1ccc(-c2coc3cc(O[C@@H]4O[C@H](CO)[C@@H](O)[C@H](O)[C@H]4O)ccc3c2=O)cc1O` [C16, calycosin-7-O-glucoside] the IC50 [1] was 563 ± 43.6 µM, the Blood glucose levels (normal C57BL/6J mice; 10 mg/kg oral) was 15.01 ± 1.15 and the “Rate of blood glucose reduction” value (normal C57BL/6J mice; 10 mg/kg oral) was 2.75%. The Blood glucose levels (normal C57BL/6J mice; 25 mg/kg oral) was 13.71 ± 0.77, the “Rate of blood glucose reduction” value (normal C57BL/6J mice; 25 mg/kg oral) was 11.17% and the Blood glucose levels (normal C57BL/6J mice; 50 mg/kg oral) was 12.78 ± 0.74. For the same compound, the “Rate of blood glucose reduction” value (normal C57BL/6J mice; 50 mg/kg oral) was 17.25%, the “type of inhibition on α-glucosidase” value (α-glucosidase [2]) was “mixed-type inhibitors” and the β-turn (α-glucosidase [3]; [7]) was 11.7%. For the same compound, the β-sheet (α-glucosidase [3]; [7]) was 29.5%, the random coil (α-glucosidase [3]; [7]) was 45.6% and the β-turn (α-glucosidase [3]; [8]) was 11.5%. The α-helix (α-glucosidase [3]; [8]) was 12.1%, the β-sheet (α-glucosidase [3]; [8]) was 27.7% and the random coil (α-glucosidase [3]; [8]) was 48.6%. It also gave a α-helix (α-glucosidase [3]; molar ratio compound:α-glucosidase 10:1, α-glucosidase 4 μM) of 13.3%, a Kd (α-glucosidase [4]) of 364 µM and an IC05 (α-glucosidase [5]) of 150.00 µM. The IC50 (α-glucosidase [6]) was 174 µM.
For `C[C@@H]1O[C@@H](OC[C@H]2O[C@@H](Oc3cc4c(O)cc(O)cc4[o+]c3-c3ccc(O)cc3)[C@H](O)[C@@H](O)[C@@H]2O)[C@H](O)[C@H](O)[C@H]1O` [pelargonidin-3-O-rutinoside], the “reduction of blood glucose” value (blood glucose; ref 52 (Xu et al.)) is given as 18.5%.
